We go through three compounds from ChEMBL document CHEMBL1201862, “PubChem BioAssay data set” (2004).

Experiment [1] deals with A-375. In words: MITF: Counter assay: A375 proliferation Measured in Cell-Based System Using Plate Reader - 2084-03_Inhibitor_Dose_DryPowder_Activity. [Related pubchem assays (depositor defined):AID488944]. Conditions: Homo sapiens. It counts as functional.
In experiment [2] the test system is A-375. Kind of experiment: A375 melanoma cell viability reduction, dose response, counter-screen for MITF modulator project, cherry-pick samples, set 2 (AID 540335). It counts as functional, cell-based. The following applies: Homo sapiens. For orientation: The purpose of a counterscreen is to sort out artefacts and off-target activity.
Experiment [3] addresses T1, Microphthalmia-associated transcription factor (Homo sapiens, UniProt O75030).
T1 sequence (O75030 whole entry): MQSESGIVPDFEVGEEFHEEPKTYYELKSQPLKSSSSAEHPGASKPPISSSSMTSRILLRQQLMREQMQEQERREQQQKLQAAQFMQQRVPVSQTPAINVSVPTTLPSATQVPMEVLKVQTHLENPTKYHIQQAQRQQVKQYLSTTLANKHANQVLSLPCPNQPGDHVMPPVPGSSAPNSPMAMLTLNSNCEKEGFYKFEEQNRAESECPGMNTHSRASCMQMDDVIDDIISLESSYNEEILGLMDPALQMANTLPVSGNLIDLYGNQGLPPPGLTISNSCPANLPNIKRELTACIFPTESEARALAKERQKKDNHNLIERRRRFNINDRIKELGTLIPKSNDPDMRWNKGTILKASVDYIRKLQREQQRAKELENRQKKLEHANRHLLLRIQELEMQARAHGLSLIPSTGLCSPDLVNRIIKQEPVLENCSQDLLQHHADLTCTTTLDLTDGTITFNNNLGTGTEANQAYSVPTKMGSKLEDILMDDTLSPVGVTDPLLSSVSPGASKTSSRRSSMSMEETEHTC
Kind of experiment: TRPM1 promoter luciferase signal decrease, dose response, MITF inhibitor project, cell-based, SK-MEL-5, cherry-picked, set 3 (AID 493073).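 Also: SK-MEL-5 melanoma cells with luciferase driven by the MITF target TRPM1 promoter.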 In kind it is functional.

Experiment [4] concerns the target T2, Replicative DNA helicase DnaB (Mycobacterium tuberculosis, UniProt P9WMR3).
T2 sequence (P9WMR3 whole entry): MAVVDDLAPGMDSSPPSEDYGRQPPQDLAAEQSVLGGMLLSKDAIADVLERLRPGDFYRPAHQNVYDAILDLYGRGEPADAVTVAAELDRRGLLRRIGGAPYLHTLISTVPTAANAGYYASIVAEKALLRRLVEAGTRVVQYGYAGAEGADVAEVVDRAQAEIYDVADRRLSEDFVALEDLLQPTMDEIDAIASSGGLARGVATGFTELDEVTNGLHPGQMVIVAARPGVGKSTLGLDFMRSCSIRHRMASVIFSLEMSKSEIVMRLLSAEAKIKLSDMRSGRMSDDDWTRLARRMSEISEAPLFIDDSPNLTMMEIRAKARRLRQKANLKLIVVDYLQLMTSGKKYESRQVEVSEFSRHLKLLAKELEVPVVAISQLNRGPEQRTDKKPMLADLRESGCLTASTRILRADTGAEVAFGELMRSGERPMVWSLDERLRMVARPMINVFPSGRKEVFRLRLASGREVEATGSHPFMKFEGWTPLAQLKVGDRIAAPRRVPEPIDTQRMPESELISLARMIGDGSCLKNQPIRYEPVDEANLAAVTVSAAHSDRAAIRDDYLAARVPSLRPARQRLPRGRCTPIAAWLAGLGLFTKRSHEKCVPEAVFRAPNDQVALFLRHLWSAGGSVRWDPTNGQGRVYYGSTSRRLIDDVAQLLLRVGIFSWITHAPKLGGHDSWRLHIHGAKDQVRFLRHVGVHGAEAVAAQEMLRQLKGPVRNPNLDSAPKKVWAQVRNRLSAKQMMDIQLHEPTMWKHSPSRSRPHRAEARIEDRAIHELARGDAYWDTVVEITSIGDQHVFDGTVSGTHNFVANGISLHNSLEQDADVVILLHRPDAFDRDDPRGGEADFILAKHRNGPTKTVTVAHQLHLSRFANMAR
In words: DnaB intein splicing inhibitors, dose response, biochemical, cell-free fluorescence (AID 449749). In kind it is functional.

The target of another experiment is T3, Protein RecA (Mycobacterium tuberculosis, UniProt P9WHJ3).
T3 sequence (P9WHJ3 whole entry): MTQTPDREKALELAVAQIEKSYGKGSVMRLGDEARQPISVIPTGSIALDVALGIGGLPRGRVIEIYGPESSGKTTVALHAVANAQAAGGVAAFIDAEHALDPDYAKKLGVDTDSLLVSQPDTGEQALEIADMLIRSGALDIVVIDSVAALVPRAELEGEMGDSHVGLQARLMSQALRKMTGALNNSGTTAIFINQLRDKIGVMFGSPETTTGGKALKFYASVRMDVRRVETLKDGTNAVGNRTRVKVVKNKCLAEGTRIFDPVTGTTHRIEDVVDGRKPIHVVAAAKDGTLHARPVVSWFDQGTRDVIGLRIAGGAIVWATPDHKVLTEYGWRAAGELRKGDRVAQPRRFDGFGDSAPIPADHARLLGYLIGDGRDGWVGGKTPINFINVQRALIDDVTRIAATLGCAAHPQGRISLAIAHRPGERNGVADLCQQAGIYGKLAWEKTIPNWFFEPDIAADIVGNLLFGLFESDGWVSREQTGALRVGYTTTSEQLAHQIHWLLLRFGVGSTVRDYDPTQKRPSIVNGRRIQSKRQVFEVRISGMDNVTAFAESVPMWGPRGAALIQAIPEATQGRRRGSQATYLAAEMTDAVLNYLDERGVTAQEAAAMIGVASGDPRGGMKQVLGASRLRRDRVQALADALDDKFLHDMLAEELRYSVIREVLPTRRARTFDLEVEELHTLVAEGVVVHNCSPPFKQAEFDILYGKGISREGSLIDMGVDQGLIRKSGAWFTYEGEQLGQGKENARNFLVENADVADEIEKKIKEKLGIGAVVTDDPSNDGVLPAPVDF
In words: Fluorescence Cell-Free Homogeneous Dose Retest to Identify Inhibitors of RecA-Intein Splicing Activity. [Related pubchem assays (depositor defined):AID2097, AID2223, AID489010, AID492950]. It counts as functional.

A further experiment deals with HeLa. In words: HeLa cell cytotoxicity, dose response, cytotoxicity control, 24 h, cherry-picked samples (AID 504726).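 Also: potency for cytotoxicity as loss of luminescence signal.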 In kind it is functional, cell-based. Conditions: Homo sapiens.
Experiment [5] has as its target UDP-galactopyranose mutase (Mycobacterium tuberculosis, UniProt P9WIQ1). In words: Inhibitors of Mycobacterium tuberculosis UDP-galactopyranose mutase (UGM) enzyme Measured in Biochemical System Using Plate Reader - 2105-02_Inhibitor_Dose_CherryPick_Activity. [Related pubchem assays (depositor defined):AID504439].
Experiment [6] has as its target T4, Insulin-degrading enzyme (Homo sapiens, UniProt P14735).
T4 sequence (P14735 whole entry): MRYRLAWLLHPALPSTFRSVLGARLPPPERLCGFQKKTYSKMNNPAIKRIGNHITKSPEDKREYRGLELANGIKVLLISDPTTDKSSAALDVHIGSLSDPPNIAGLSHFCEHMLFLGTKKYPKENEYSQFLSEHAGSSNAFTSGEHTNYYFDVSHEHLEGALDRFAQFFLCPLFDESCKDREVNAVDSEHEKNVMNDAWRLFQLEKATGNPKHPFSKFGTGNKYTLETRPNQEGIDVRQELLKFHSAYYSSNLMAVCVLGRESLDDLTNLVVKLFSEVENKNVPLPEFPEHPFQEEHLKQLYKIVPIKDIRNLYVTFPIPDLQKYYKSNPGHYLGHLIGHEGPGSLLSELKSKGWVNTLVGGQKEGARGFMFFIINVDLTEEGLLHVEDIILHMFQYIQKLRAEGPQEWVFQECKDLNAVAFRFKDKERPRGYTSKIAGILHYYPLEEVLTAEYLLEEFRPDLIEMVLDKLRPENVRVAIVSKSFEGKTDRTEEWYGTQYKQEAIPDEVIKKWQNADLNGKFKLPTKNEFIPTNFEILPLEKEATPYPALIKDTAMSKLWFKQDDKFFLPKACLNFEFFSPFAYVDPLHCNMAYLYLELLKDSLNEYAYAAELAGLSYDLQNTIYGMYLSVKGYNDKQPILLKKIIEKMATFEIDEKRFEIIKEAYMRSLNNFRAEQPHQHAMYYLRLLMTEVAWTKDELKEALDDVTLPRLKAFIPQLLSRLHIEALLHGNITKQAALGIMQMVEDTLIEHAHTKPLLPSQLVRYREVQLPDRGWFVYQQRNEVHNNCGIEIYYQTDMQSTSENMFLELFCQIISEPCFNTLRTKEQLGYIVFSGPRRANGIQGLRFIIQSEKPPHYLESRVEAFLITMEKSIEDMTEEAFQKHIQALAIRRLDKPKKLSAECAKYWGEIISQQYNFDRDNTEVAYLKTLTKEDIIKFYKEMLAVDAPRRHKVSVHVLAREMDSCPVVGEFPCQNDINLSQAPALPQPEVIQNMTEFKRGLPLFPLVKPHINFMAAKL
In words: activators of recombinant IDE enzyme, dose response, counter-screen for IDE activator project, biochemical, fluorescence polarization (AID 588681).

For experiment [7], the target named is T4, Insulin-degrading enzyme. In words: activators of endogenous IDE in HEK cells, dose response, cell-based, fluorescence polarization (AID 588439). It counts as functional. A general note: In fluorescence polarisation assays a small probe gives low polarisation when free and higher when bound to something large.
The subject of experiment [8] is HEK293. In words: HEK cell cytotoxicity by LDH release, dose response, cytotoxicity control for IDE activator project, fluorescence, HEK cells (AID 588440).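 Also: cytotoxicity by LDH release measuring loss of membrane integrity.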 Conditions: Homo sapiens. In kind it is functional, cell-based. (Release of lactate dehydrogenase indicates damage to the cell membrane.)
The subject of experiment [9] is HEK293. Kind of experiment: optical interference in Abeta FP readout, dose response, artefact control for IDE activator project, biochemical, fluorescence polarization (AID 588442). The following applies: Homo sapiens. It counts as functional, cell-based.

Each structure is given as a SMILES string. The source made the active and inactive calls.

Chain of UDP-galactopyranose mutase (P9WIQ1 whole entry): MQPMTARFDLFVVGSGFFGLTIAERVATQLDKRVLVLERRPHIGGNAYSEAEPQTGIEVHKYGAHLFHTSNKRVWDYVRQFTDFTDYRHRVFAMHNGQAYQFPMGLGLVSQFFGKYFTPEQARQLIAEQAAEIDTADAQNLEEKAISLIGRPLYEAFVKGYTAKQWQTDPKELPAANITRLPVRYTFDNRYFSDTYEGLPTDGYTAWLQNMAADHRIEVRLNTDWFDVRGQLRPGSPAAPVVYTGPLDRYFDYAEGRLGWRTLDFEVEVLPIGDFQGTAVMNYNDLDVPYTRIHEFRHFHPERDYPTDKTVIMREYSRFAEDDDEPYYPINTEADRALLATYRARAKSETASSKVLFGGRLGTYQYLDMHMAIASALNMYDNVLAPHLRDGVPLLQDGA

As a reminder, the AC50 is the concentration at which the activity in the assay is half-maximal. As for `O=C(Nc1cc2c(cc1Cl)OCCO2)c1ccco1`, the AC50 in the experiment with A-375 [1] and in the experiment with A-375 [2] was > 11 µM (active) in each case.

As a reminder, the EC50 is the concentration giving half of the maximal effect. Consider `Cc1c(C#N)c(NC(=O)CCl)n(Cc2cccs2)c1C`, for which the concentration at half-maximal activity (AC50) is 7.07 µM (active) in experiment [3], 48 µM (active) in [4], > 35 µM (active) with A-375 [1] and > 35 µM (active) in the experiment on A-375 [2]. Also, the EC50 at Protein RecA was 9.25 µM (active).

As usually defined, the IC50 is the concentration that gives 50% inhibition. Regarding `COc1ccc(N=Nc2nc3ccc(Br)cc3n2C)cc1`, the concentration at half-maximal activity (AC50) was 98.3 µM (active) in the experiment on HeLa and 145 µM (active) in experiment [5]. In addition, the EC50 at Insulin-degrading enzyme [6], on Insulin-degrading enzyme [7] and in the experiment on HEK293 [9] was > 54.7 µM (inactive) each time. Also, the IC50 in the experiment on HEK293 [8] was > 89.2 µM (inactive).
